From ChEMBL document CHEMBL1201862, “PubChem BioAssay data set” (2004)
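All cell lines were grown in 96-well plates and treated with compound for 48 hours. At the GI50, growth is halved.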 The source made the active and inactive calls. No stated cut-off is given here; in the data, active = GI50 up to about 1.1 µM and inactive = higher.

Assays:
Assay in all cases: inhibition of tumour cell growth, NCI panel, 48 h
Hs-578T = test system: Hs-578T
NCI-H522 = test system: NCI-H522
MDA-MB-435 = test system: MDA-MB-435
U-251 = test system: U-251
A549 = test system: A549
DU-145 = test system: DU-145
SF-539 = test system: SF-539
UO-31 = test system: UO-31
HCC 2998 = test system: HCC 2998
NCI-H460 = test system: NCI-H460
RXF 393 = test system: RXF 393
MDA-MB-231 = test system: MDA-MB-231
OVCAR-3 = test system: OVCAR-3
Malme-3M = test system: Malme-3M
NCI-H23 = test system: NCI-H23
A498 = test system: A498
SK-MEL-5 = test system: SK-MEL-5
LOX IMVI = test system: LOX IMVI
UACC-257 = test system: UACC-257
OVCAR-4 = test system: OVCAR-4
HOP-92 = test system: HOP-92
SF-268 = test system: SF-268
PC-3 = test system: PC-3
UACC-62 = test system: UACC-62
SK-MEL-2 = test system: SK-MEL-2
SNB-19 = test system: SNB-19
M14 = test system: M14
T47D = test system: T47D
TK-10 = test system: TK-10
OVCAR-8 = test system: OVCAR-8
SNB-75 = test system: SNB-75
SN12C = test system: SN12C
OVCAR-5 = test system: OVCAR-5
BT-549 = test system: BT-549
SK-OV-3 = test system: SK-OV-3
SK-MEL-28 = test system: SK-MEL-28
786-0 = test system: 786-0
RPMI-8226 = test system: RPMI-8226
CAKI-1 = test system: CAKI-1
MOLT-4 = test system: MOLT-4
CCRF-CEM = test system: CCRF-CEM
NCI-H226 = test system: NCI-H226
ACHN = test system: ACHN
IGROV-1 = test system: IGROV-1
KM12 = test system: KM12
COLO 205 = test system: COLO 205
HT-29 = test system: HT-29
NCI/ADR-RES = test system: NCI/ADR-RES
HOP-62 = test system: HOP-62
HCT-15 = test system: HCT-15
SW-620 = test system: SW-620
K562 = test system: K562
HCT-116 = test system: HCT-116
EKVX = test system: EKVX
MCF7 = test system: MCF7
SR = test system: SR
SF-295 = test system: SF-295
HL-60 = test system: HL-60
MDA-N = test system: MDA-N

Measured: GI50

Cc1cc(C)c2c(c1)CC1(Cc3ccc(C)c(C)c3C1=O)C2=O (centres undefined)
inactive: Hs-578T 11.4 µM | NCI-H522 > 100 µM | MDA-MB-435 2.24 µM | U-251 45.2 µM | A549 > 100 µM | DU-145 > 100 µM | SF-539 > 100 µM | UO-31 > 100 µM | HCC 2998 > 100 µM | NCI-H460 > 100 µM | RXF 393 15.8 µM | MDA-MB-231 6.24 µM | OVCAR-3 > 100 µM | Malme-3M 3.56 µM | NCI-H23 > 100 µM | A498 > 100 µM | SK-MEL-5 > 100 µM | LOX IMVI > 100 µM | UACC-257 > 100 µM | OVCAR-4 45.9 µM | HOP-92 > 100 µM | SF-268 > 100 µM | PC-3 56.2 µM | UACC-62 > 100 µM | SK-MEL-2 > 100 µM | SNB-19 > 100 µM | M14 > 100 µM | T47D > 100 µM | TK-10 49.8 µM | OVCAR-8 > 100 µM | SNB-75 > 100 µM | SN12C > 100 µM | OVCAR-5 > 100 µM | BT-549 > 100 µM | SK-OV-3 > 100 µM | SK-MEL-28 > 100 µM | 786-0 > 100 µM | RPMI-8226 > 100 µM | CAKI-1 > 100 µM

CC(C)(C)c1ccc(O)c(C(O)c2ccncc2)c1 (centres undefined)
52.4 µM: HCT-15
inactive: Hs-578T 37.7 µM | NCI-H522 > 100 µM | MOLT-4 76.4 µM | A549 83.2 µM | DU-145 > 100 µM | SF-539 > 100 µM | UO-31 > 100 µM | HCC 2998 39.7 µM | NCI-H460 > 100 µM | CCRF-CEM > 100 µM | RXF 393 45.4 µM | MDA-MB-231 62.8 µM | OVCAR-3 > 100 µM | Malme-3M 62.7 µM | NCI-H23 70.8 µM | NCI-H226 72.1 µM | SK-MEL-5 24.1 µM | ACHN 52.4 µM | IGROV-1 > 100 µM | SF-268 > 100 µM | KM12 > 100 µM | COLO 205 > 100 µM | HT-29 > 100 µM | NCI/ADR-RES 53 µM | HOP-62 > 100 µM | T47D 16.9 µM | OVCAR-8 > 100 µM | SNB-75 68.7 µM | SW-620 > 100 µM | OVCAR-5 70.8 µM | K562 61.4 µM | BT-549 > 100 µM | SK-MEL-28 > 100 µM | HCT-116 > 100 µM | 786-0 > 100 µM | CAKI-1 > 100 µM | EKVX 44.6 µM

C=C1C[C@H](O)[C@H]2C(C[Se]c3ccccc3)C(=O)O[C@@H]2[C@H]2[C@H](C)C(O)C[C@@H]12 (some centres undefined)
inactive: Hs-578T 32.8 µM | NCI-H522 17.5 µM | MCF7 > 100 µM | MOLT-4 31.6 µM | MDA-MB-435 80.2 µM | U-251 16.4 µM | A549 44.2 µM | DU-145 44.2 µM | SF-539 55.3 µM | UO-31 22.8 µM | NCI-H460 34 µM | SR 23.4 µM | CCRF-CEM 24.8 µM | RXF 393 13.1 µM | MDA-MB-231 14.8 µM | OVCAR-3 24.4 µM | Malme-3M 40.6 µM | NCI-H23 15.7 µM | NCI-H226 23.1 µM | SK-MEL-5 33.6 µM | LOX IMVI 21.2 µM | UACC-257 37.9 µM | ACHN 27.9 µM | OVCAR-4 38.1 µM | HOP-92 29.3 µM | IGROV-1 25.3 µM | SF-268 67.6 µM | KM12 40 µM | SF-295 75.9 µM | COLO 205 50.7 µM | PC-3 22.7 µM | HT-29 46.1 µM | UACC-62 19.1 µM | NCI/ADR-RES 20.2 µM | HOP-62 > 100 µM | SK-MEL-2 66.2 µM | SNB-19 > 100 µM | M14 31.5 µM | T47D 28.3 µM | TK-10 56.9 µM | OVCAR-8 41.8 µM | SNB-75 31.8 µM | SN12C 21.8 µM | SW-620 27.5 µM | OVCAR-5 20.6 µM | K562 36.6 µM | BT-549 28.8 µM | SK-OV-3 > 100 µM | SK-MEL-28 76.2 µM | HCT-116 23.1 µM | 786-0 33 µM | RPMI-8226 23.9 µM | CAKI-1 71.6 µM | EKVX 33.7 µM
13.8 µM: HCT-15

O=C1CC2(CCN(CC3COc4ccccc4O3)CC2)C(=O)N1N1CCCCCC1 (centres undefined)
inactive: Hs-578T 44.1 µM | NCI-H522 78.5 µM | MCF7 37.2 µM | MOLT-4 20.7 µM | MDA-MB-435 40 µM | U-251 > 100 µM | A549 > 100 µM | DU-145 32.7 µM | SF-539 > 100 µM | UO-31 > 100 µM | SR > 100 µM | CCRF-CEM 29.4 µM | RXF 393 64.6 µM | MDA-MB-231 > 100 µM | OVCAR-3 > 100 µM | Malme-3M 94.4 µM | NCI-H23 16.9 µM | A498 > 100 µM | NCI-H226 51.9 µM | HL-60 17.6 µM | SK-MEL-5 22.7 µM | LOX IMVI 28.9 µM | UACC-257 13.9 µM | ACHN 73.5 µM | OVCAR-4 33.6 µM | HOP-92 87.3 µM | IGROV-1 > 100 µM | SF-268 > 100 µM | SF-295 71.1 µM | COLO 205 35.9 µM | PC-3 27.5 µM | HT-29 21.4 µM | UACC-62 > 100 µM | NCI/ADR-RES 52.7 µM | HOP-62 > 100 µM | SK-MEL-2 > 100 µM | SNB-19 > 100 µM | M14 69.3 µM | T47D 33.7 µM | TK-10 > 100 µM | OVCAR-8 64.6 µM | SNB-75 76.4 µM | SN12C > 100 µM | OVCAR-5 48.5 µM | K562 15.6 µM | BT-549 61.7 µM | SK-OV-3 > 100 µM | SK-MEL-28 > 100 µM | HCT-116 52.6 µM | 786-0 > 100 µM | RPMI-8226 59.8 µM | CAKI-1 > 100 µM | EKVX > 100 µM
> 100 µM: HCT-15

C=C1C(=O)O[C@@]23C1CC[C@@H](C)C2CC[C@@]1(C)OC31 (some centres undefined)
9.33 µM: HCT-15
inactive: Hs-578T 16 µM | NCI-H522 6.32 µM | MCF7 5.96 µM | MOLT-4 3.61 µM | MDA-MB-435 4.25 µM | U-251 6.35 µM | A549 21.2 µM | DU-145 3.85 µM | SF-539 3.24 µM | UO-31 5.69 µM | HCC 2998 4.9 µM | NCI-H460 16.4 µM | SR 3.71 µM | CCRF-CEM 3.42 µM | RXF 393 16.7 µM | OVCAR-3 3.27 µM | Malme-3M 2.08 µM | NCI-H23 7.18 µM | A498 18.2 µM | NCI-H226 23.9 µM | HL-60 2.72 µM | SK-MEL-5 3.24 µM | LOX IMVI 11.5 µM | UACC-257 6.75 µM | ACHN 12.4 µM | OVCAR-4 8.91 µM | HOP-92 8.79 µM | IGROV-1 11.7 µM | SF-268 13.7 µM | KM12 12.8 µM | SF-295 18.2 µM | COLO 205 1.86 µM | PC-3 5.05 µM | HT-29 5.86 µM | UACC-62 12.1 µM | NCI/ADR-RES 16.8 µM | HOP-62 10 µM | SK-MEL-2 5.58 µM | SNB-19 18.6 µM | M14 3.52 µM | T47D 4.03 µM | TK-10 4.12 µM | OVCAR-8 16.9 µM | SNB-75 3.13 µM | SN12C 7.24 µM | SW-620 8.81 µM | OVCAR-5 12.6 µM | K562 7.78 µM | BT-549 7.71 µM | SK-OV-3 16 µM | SK-MEL-28 6.35 µM | HCT-116 8.65 µM | 786-0 5.71 µM | MDA-N 5.09 µM | RPMI-8226 2.9 µM | CAKI-1 5.75 µM | EKVX 12.5 µM
